This note sets out measurements from patent US20130053330A1, “Fertilization Prediction and Promotion” (Karolinska Institutet Innovations AB, priority 2010, published 2013).

Peptide text beside a SMILES is read from it.

Assay [1] relates to G10 cells (Porcine aortic endothelial cells). Kind of assay: Chemotaxis (migration) assay in modified Boyden chamber, G10 cells. The assay is classed as cell-based, pig. The note with it: for inhibition of VEGF-induced migration of G10 cells: 100 ng/ml in lower chamber, 4-6 h at 37° C. How it is done:
By using a proliferation and a migration (chemotaxis) assay the importance of HRG as well as HRG peptides was analyzed. The peptides used correspond to a fragment of full-length HRG containing 35 amino acids covering position 204 in the protein; the proline of native HRG in that specific position is changed to serine. The amino acid sequences are: […] (SEQ ID NO: 7, named HRGPro herein) and […] (SEQ ID NO: 8, named HRGSer herein); the peptides were produced and purchased from Innovagen, Lund, Sweden.
The assay was performed in a modified Boyden chamber using micropore nitrocellulose filters (8 μm thick, 8 μm pore) coated with type-1 collagen solution at 100 μg/ml (Vitrogen 100, Collagen Corp.). Cells (G10 and HEEC cells) were trypsinized and resuspended at a concentration of 5.5×10^5 cells/ml in serum-free culture medium containing 0.25% fetal calf serum (FCS). The cell suspension was placed in the upper chamber, and the serum-free medium containing 0.25% FCS and FGF-2 or VEGF, HRG or the HRGPro or HRGSer peptide, was placed below the filter in the lower chamber. As a positive control, medium containing 10% FCS was added to the lower chamber. After 4-6 h at 37° C., the medium was removed and the cells sticking to the filter were fixed in pure methanol and stained with Giemsa stain. The cells that had migrated through the filter were counted.
The effects of HRG, HRGPro and HRGSer on migration of G10 and HEE cells were examined by using a Boyden chamber.

The test system of assay [2] is Human endometrial endothelial (HEE) cells. As to the kind of experiment: Chemotaxis (migration) assay in modified Boyden chamber, HEE cells. In kind it is cell-based. The note with it: VEGF 10 ng/ml; for inhibition of VEGF-induced migration of HEE cells: 100 ng/ml in lower chamber, 4-6 h at 37° C. On the procedure:
By using a proliferation and a migration (chemotaxis) assay the importance of HRG as well as HRG peptides was analyzed. The peptides used correspond to a fragment of full-length HRG containing 35 amino acids covering position 204 in the protein; the proline of native HRG in that specific position is changed to serine. The amino acid sequences are: […] NO: 7, named HRGPro herein) and […] NO: 8, named […] herein); the peptides were produced and purchased from Innovagen, Lund, Sweden. The assay was performed in a modified Boyden chamber using micropore nitrocellulose filters (8 μm thick, 8 μm pore) coated with type-1 collagen solution at 100 μg/ml (Vitrogen 100, Collagen Corp.). Cells (G10 and HEEC cells) were trypsinized and resuspended at a concentration of 5.5×10^5 cells/ml in serum-free culture medium containing 0.25% fetal calf serum (FCS). […] After 4-6 h at 37° C., the medium was removed and the cells sticking to the filter were fixed in pure methanol and stained with Giemsa stain. The cells that had migrated through the filter were counted. The effects of HRG, HRGPro and […] on migration of G10 and HEE cells were examined by using a Boyden chamber.

The test system is the same in assay [3]. As to the kind of experiment: Cell proliferation assay, HEE cells. The assay is classed as cell-based. The note with it: 100 ng/ml; starvation medium with 0.25% FCS; cell numbers scored after 5 days. How it is done: (§1) By using a proliferation and a migration (chemotaxis) assay the importance of HRG as well as HRG peptides was analyzed. The peptides used correspond to a fragment of full-length HRG containing 35 amino acids covering position 204 in the protein; the proline of native HRG in that specific position is changed to serine. The amino acid sequences are: […] NO: 7, named HRGPro herein) and […] NO: 8, named […] herein); the peptides were produced and purchased from Innovagen, Lund, Sweden. Cells (G10 and HEEC) in culture medium supplemented with 10% FCS were seeded into 24-well dishes. After 2 h the medium was changed to starvation medium (culture medium containing 0.25% FCS) and the incubation continued for an additional 24 h. The medium was changed again at day 2 and day 4 (starvation medium), and at the same time FGF-2 or VEGF, HRG or HRG Pro or Ser containing peptide were added. As a control, cells were cultured in basal culture medium supplemented with 10% FCS. Cell numbers were scored after 5 days. Human endometrial endothelial (HEE) cells were cultured in starvation medium containing culture medium (3 H) supplemented with 0.25% FCS.

Assay [4] has as its system G10 cells (Porcine aortic endothelial cells). The note with it: 100 ng/ml; starvation medium (Ham's F12, 0.25% FCS); cell numbers scored after 5 days. On the procedure:
as §1, with “G10 cells (Porcine aortic” for “Human endometrial”, “cells)” for “(HEE) cells”, “(Ham's F12)” for “(3 H)”

For the molecule `CC(C)[C@H](NC(=O)[C@H](CC(N)=O)NC(=O)[C@@H]1CCCN1C(=O)[C@H](Cc1c[nH]cn1)NC(=O)[C@H](CCCNC(=N)N)NC(=O)[C@@H]1CCCN1C(=O)[C@H](Cc1ccccc1)NC(=O)[C@H](Cc1c[nH]cn1)NC(=O)[C@H](Cc1c[nH]cn1)NC(=O)[C@H](CCCNC(=N)N)NC(=O)[C@@H]1CCCN1C(=O)[C@H](CS)NC(=O)[C@H](CC(N)=O)NC(=O)[C@H](CCCNC(=N)N)NC(=O)[C@@H](NC(=O)[C@H](CO)NC(=O)[C@H](Cc1ccccc1)NC(=O)[C@H](CC(=O)O)NC(=O)[C@@H](NC(=O)[C@H](Cc1ccccc1)NC(=O)[C@H](Cc1ccc(O)cc1)NC(=O)CNC(=O)[C@@H](NC(=O)CNC(=O)[C@H](CCC(=O)O)NC(=O)CNC(=O)CNC(=O)[C@@H](N)CCCNC(=N)N)[C@@H](C)O)C(C)C)C(C)C)C(=O)N[C@@H](Cc1ccccc1)C(=O)NCC(=O)N[C@@H](Cc1ccccc1)C(=O)N[C@@H](CS)C(=O)N[C@@H](CCCNC(=N)N)C(=O)N[C@@H](C)C(=O)N[C@@H](CC(=O)O)C(=O)O` [HRGPro] (H-RGGEGTGYFVDFSVRNCPRHHFPRHPNVFGFCRAD-OH; N-terminus and C-terminus assumed), in assay [1], the “inhibition of VEGF-induced migration of G10 cells” value is given as “A tendency”. Further, in assay [2], the “inhibition of VEGF-induced migration of HEE cells” value (“inhibition … of HEE cells” below) is reported as “A tendency”. Besides, the “increase in number of HEE cells compared with culture in starvation medium” value (“increase in number of HEE cells” for short) in assay [3] amounted to 13%.

As to `CC(C)[C@H](NC(=O)[C@H](CC(N)=O)NC(=O)[C@@H]1CCCN1C(=O)[C@H](Cc1c[nH]cn1)NC(=O)[C@H](CCCNC(=N)N)NC(=O)[C@@H]1CCCN1C(=O)[C@H](Cc1ccccc1)NC(=O)[C@H](Cc1c[nH]cn1)NC(=O)[C@H](Cc1c[nH]cn1)NC(=O)[C@H](CCCNC(=N)N)NC(=O)[C@H](CO)NC(=O)[C@H](CS)NC(=O)[C@H](CC(N)=O)NC(=O)[C@H](CCCNC(=N)N)NC(=O)[C@@H](NC(=O)[C@H](CO)NC(=O)[C@H](Cc1ccccc1)NC(=O)[C@H](CC(=O)O)NC(=O)[C@@H](NC(=O)[C@H](Cc1ccccc1)NC(=O)[C@H](Cc1ccc(O)cc1)NC(=O)CNC(=O)[C@@H](NC(=O)CNC(=O)[C@H](CCC(=O)O)NC(=O)CNC(=O)CNC(=O)[C@@H](N)CCCNC(=N)N)[C@@H](C)O)C(C)C)C(C)C)C(=O)N[C@@H](Cc1ccccc1)C(=O)NCC(=O)N[C@@H](Cc1ccccc1)C(=O)N[C@@H](CS)C(=O)N[C@@H](CCCNC(=N)N)C(=O)N[C@@H](C)C(=O)N[C@@H](CC(=O)O)C(=O)O` [HRGSer] (H-RGGEGTGYFVDFSVRNCSRHHFPRHPNVFGFCRAD-OH; N-terminus and C-terminus assumed), the “inhibition of VEGF-induced migration of G10 cells” value in assay [1] is listed as “inhibited significantly”. In assay [2], the “inhibition … of HEE cells” value was “inhibited significantly”. The “increase in number of HEE cells” value in assay [3] was found to be 86%.

For the molecule “FGF: Fibroblast Growth Factor, used to induce migration of G10 cells [reference compound]”, the “induction of migration of G10 cells” value in assay [1] (FGF 20 ng/ml) was “induced migration”.

For the molecule VEGF [reference compound], the “induction of migration of HEE cells” value in assay [2] is “induced migration”.

B1: Histidine-rich glycoprotein (protein)
chain: VSPTDCSAVEPEAEKALDLINKRRRDGYLFQLLRIADAHLDRVENTTVYYLVLDVQESDCSVLSRKYWNDCEPPDSRRPSEIVIGQCKVIATRHSHESQDLRVIDFNCTTSSVSSALANTKDSPVLIDFFEDTERYRKQANKALEKYKEENDDFASFRVDRIERVARVRGGEGTGYFVDFSVRNCPRHHFPRHPNVFGFCRADLFYDVEALDLESPKNLVINCEVFDPQEHENINGVPPHLGHPFHWGGHERSSTTKPPFKPHGSRDHHHPHKPHEHGPPPPPDERDHSHGPPLPQGPPPLLPMSCSSCQHATFGTNGAQRHSHNNNSSDLHPHKHHSHEQHPHGHHPHAHHPHEHDTHRQHPHGHHPHGHHPHGHHPHGHHPHGHHPHCHDFQDYGPCDPPPHNQGHCCHGHGPPPGHLRRRGPGKGPRPFHCRQIGSVYRLPPLRKGEVLPLPEANFPSFPLPHHKHPLKPDNQPFPQSVSESCPGKFKSGFPQVSMFFTHTFPK
As to B1, the “inhibition of proliferation of G10 cells (decrease compared with culture in starvation medium)” value in assay [4] stood at 24%. Moreover, in assay [1], the “inhibition of VEGF-induced migration of G10 cells” value is reported as “A tendency”. Moreover, the “inhibition … of HEE cells” value in assay [2] is “A tendency”. For the same molecule, the “increase in number of HEE cells” value in assay [3] came to 6%.
